# Patent US9416103B2, “Use of the aminoalkylindole JWH-073-M4 and related compounds as neutral CB1 receptor antagonists for the treatment of alcoholism, drug abuse, obesity, and obesity-related diseases” (The Board of Trustees of the University of Arkansas, priority 2012, dated 2016)
# Several values for one entry are separate records, joined by “and”; a condition that tells them apart may be missing. Identical values can stand only once. Like-named read-outs stand apart in the source and are kept apart here. Marks after values point to notes of the source that are not given here.
# Tests used:
# CB1Rs [1] = biological target: T1, CB1Rs (Mus musculus (Mouse), UniProt P47746); assay: [35S]GTPγS binding assay (G-protein activation) in mouse brain homogenates; assay type: biochemical; conditions: for [35S]GTPγS Binding, +O-2050 (1 μM): 1 μM cannabinoid (100 nM for CP-55,940) co-incubated with CB1R antagonist O-2050 1 μM; for [35S]GTPγS Binding, 10 μM: receptor-saturating concentration 10 μM
# Protocol: (§1) Mouse brain homogenates for in vitro assays were prepared as previously described. Briefly, whole brains were harvested from B6SJL mice, snap-frozen in liquid nitrogen and stored at −80° C. On the day membrane homogenates were to be prepared, brains were thawed on ice, then pooled in a 40 mL Dounce glass homogenizer and suspended in 5 volumes of ice cold homogenization buffer (50 mM HEPES, pH 7.4, 3 mM MgCl2, and 1 mM EGTA). Brains were then subjected to 10 complete strokes with an A pestle, followed by centrifugation at 40,000×g for 10 minutes at +4° C. Resulting supernatants were discarded, and the pellet was resuspended, homogenized and centrifuged similarly twice more, with supernatants being discarded. For the final resuspension and homogenization with a B pestle, ice-cold 50 mM HEPES was used in place of homogenization buffer, and homogenates were aliquoted and stored at −80° C. Protein concentrations of homogenates were determined using the BCA™ Protein Assay (Thermo Scientific, Rockford, Ill.).
# [^35S]GTPγS binding was performed as previously described. Briefly, 25 μg of mouse brain homogenates were incubated for 30 minutes at 30° C. with 0.1 nM [^35S]GTPγS, 10 μM GDP, and either cannabinoid+/−antagonist, 10 μM unlabeled GTPγS (non-specific binding) or vehicle (total binding), in triplicate, in a volume of 1 mL of buffer containing 20 mM HEPES, 10 mM MgCl2, 100 mM NaCl, 20 units/L adenosine deaminase, 0.05% BSA and the appropriate DMSO (0.1%) and/or ethanol (<0.2%) vehicle. Assay buffer containing 100 mM KCl, instead of 100 mM NaCl, was used to increase basal G-protein activity in experiments examining inverse agonism. Reactions were terminated by quick vacuum filtration through Whatman GF/B glass fiber filters, followed by five washes with ice-cold buffer (20 mM HEPES, 0.05% BSA). Filters were immediately placed into 7 mL scintillation vials to which 4 mL of ScintiVerse™ BD Cocktail scintillation fluid was added. Bound radioactivity was determined after overnight incubation at room temperature and shaking by liquid scintillation spectrophotometry with an efficiency of 93% (Tri Carb 2100 TR Liquid Scintillation Analyzer, Packard Instrument Company, Meriden, Conn.). Specific binding is expressed as picomoles of [^35S]GTPγS bound per mg of protein.
# (§2) Curve fitting and statistical analyses for in vitro experiments were performed using GraphPad Prism™ version 5.0b (GraphPad Software Inc., San Diego, Calif.). The Cheng-Prusoff equation [45] was used to convert the experimental IC50 values obtained from competition receptor binding experiments to Ki values, a quantitative measure of receptor affinity. Non-linear regression for one-site competition was used to determine the IC50 for competition receptor binding. Curve fitting of concentration-effect curves via non-linear regression was also employed to determine the EC50 (a measure of potency) and Emax (a measure of efficacy) for [^35S]GTPγS concentration-effects experiments. […] Data are expressed as mean±SEM. The Student's t-test was used to determine statistical significance (P<0.05) between two groups, while a one-way ANOVA, followed by Tukey's Multiple Comparison post-hoc test, was used to determine statistical significance (P<0.05) between three or more groups.
# NIH Swiss mice [2] = assay: Core body temperature by biotelemetry (cannabinoid tetrad, hypothermia); assay type: in vivo, mouse; conditions: i.p.
# Protocol: Prior to surgery (see below), male NIH Swiss mice (Harlan Sprague Dawley Inc., Indianapolis, Ind.), weighing approximately 25-30 g, were housed 3 animals per Plexiglas® cage (15.24×25.40×12.70 cm) in a temperature-controlled room in an Association for Assessment and Accreditation of Laboratory Animal Care (AAALAC) accredited animal facility at the University of Arkansas for Medical Sciences. Room conditions were maintained at 22±2° C. and 45-50% humidity. Lights were set to a 12-h light/dark cycle. Animals were fed Lab Diet rodent chow (Laboratory Rodent Diet #5001, PMI Feeds, Inc., St. Louis, Mo.) and water ad libitum throughout testing Animals were acclimated to the laboratory environment for ˜7 days prior to experiments, and to the biotelemetry chambers for at least 2 hours prior to initiation of data acquisition. All test conditions used groups of 5 or 6 mice, and all mice were drug-naïve (with the exception of surgical anesthetics) prior to testing.
# Cannabinoid effects on core temperature and locomotor activity were measured using surgically-implanted biotelemetry probes. Following appropriate anesthetization with ketamine (100 mg/kg, intraperitoneal [i.p.]) and xylazine (10 mg/kg, i.p.), the abdominal area of each mouse was shaved and sanitized with iodine swabs. A rostral-caudal cut approximately 1.5 cm in length was made with skin scissors, providing access to the intraperitoneal cavity. A cylindrical glass-encapsulated radiotelemetry probe (model ER-4000 E-Mitter, Mini Mitter Co., Inc., Bend, Oreg.) was then inserted, and the incision was closed using absorbable 5-0 chromic gut suture material. At least 7 days were imposed between surgery and experimental observation of cannabinoid effects to allow incisions to heal and mice to recover normal body weights. Following surgery, implanted mice were individually housed in Plexiglas® mouse cages (15.24×25.40×12.70 cm) for the duration of all temperature and locomotor activity experiments Implanted transmitters produced activity- and temperature-modulated signals that were transmitted to a receiver (model ER-4000 Receiver, Mini Mitter Co., Inc., Bend, Oreg.) underneath each mouse cage. Receivers were housed in light- and sound-attenuating cubicles (Med Associates model ENV-022MD, St. Albans, Vt.) equipped with exhaust fans, which further masked ambient laboratory noise. On experimental days, mice were weighed, marked, and returned to their individual cages during which at least 1 hr of baseline data were collected. […]. Mice were then placed into a new cage with fresh bedding to stimulate exploratory behavior. Temperature and locomotor activity data were collected at regular 5-min intervals and processed simultaneously by the Vital View data acquisition system (Mini Mitter Co., Inc., Bend, Oreg.) for at least 10 hrs.
# For core body temperature experiments, the area under the curve (AUC) was calculated using a trapezoidal rule from 0-500 minutes, and statistical significance (P<0.05) was determined using a one-way ANOVA, followed by Tukey's HSD post-hoc test. For locomotor activity, total locomotor counts were summed from 0-800 minutes. Because locomotor, analgesia and catalepsy data were not normally distributed, Kruskal-Wallis one-way ANOVA on ranks were performed, and all pair-wise comparisons were then made using the Tukey's HSD tests. In vivo statistical calculations were performed using SigmaStat 3 (Systat Software, Inc., San Jose, Calif.).
# NIH Swiss mice [3] = assay: Locomotor activity by biotelemetry (cannabinoid tetrad); assay type: in vivo, mouse; conditions: 10 mg/kg, i.p.
# CB1Rs [4] = biological target: T1, CB1Rs; assay: Competition receptor binding with [3H]CP-55,940 in mouse brain homogenates
# Protocol: as §1
# (§3) Competition receptor binding was performed as previously described. […] Reactions were terminated by rapid vacuum filtration through Whatman GF/B glass fiber filters, followed by five washes with ice-cold buffer (50 mM Tris, 0.05% BSA). Filters were immediately placed into 7 mL scintillation vials to which 4 mL of ScintiVerse™ BD Cocktail scintillation fluid (Fisher Scientific, Fair Lawn, N.J.) was added. Bound radioactivity was determined after overnight incubation at room temperature and shaking, by liquid scintillation spectrophotometry with an efficiency of 44% (Tri Carb 2100 TR Liquid Scintillation Analyzer, Packard Instrument Company, Meriden, Conn.). Specific binding is expressed as total binding minus non-specific binding, and is graphed for each data point as a percentage of specific binding occurring in the absence of any competitor.
# as §2
# (§4) The prepared analogues were subjected to in vitro pharmacological testing, which included receptor binding and functional assays at both cannabinoid receptors. Initial receptor binding screens at both CB1Rs and CB2Rs were conducted for the analogues prepared.
# hCB2Rs [5] = biological target: T2, hCB2Rs (Homo sapiens (Human), UniProt P34972); assay: Competition receptor binding with [3H]CP-55,940 in CHO-hCB2 cell homogenates; conditions: Table 3; read-out: hCB2R Ki
# Protocol: as §3, §4
# hCB2Rs [6] = biological target: T2, hCB2Rs; assay: Inhibition of forskolin-stimulated cAMP production (adenylyl cyclase) in intact CHO-hCB2R cells; assay type: cell-based; conditions: 10 μM, CHO cell transfected with hCB2 receptors; read-out: AC-inhibition at CB2Rs
# Protocol: Adenylyl cyclases are a family of membrane-bound enzymes that catalyze the intracellular production of the second messenger cAMP from ATP. Adenylyl cyclase activity is modulated by activated G-proteins: Gs-proteins stimulate activity, while Gi/o-proteins are inhibitory. Thus, agonists of G-protein coupled receptors (GPCRs) coupled to Gi/o-proteins, such as hCB2Rs, decrease cAMP production due to inhibition of adenylyl cyclase activity. In this assay, intact CHO-hCB2R cells are preincubated with [^3H]-adenine and treated with forskolin (10 or 30 μM) to stimulate adenylyl cyclase activity.
# A functional assay screen for the inhibition of adenylate cyclase (AC) activity was chosen as the subsequent assay. […] Reaching full-receptor occupancy, which is predicted to produce maximal efficacy, is desirable at 10 μM concentration of all the compounds was used.
# [7] = biological target: CB1Rs endogenously expressed in Neuro2A cells (Mus musculus (Mouse), UniProt P47746); assay: Adenylyl cyclase (AC) inhibition via CB1Rs endogenously expressed in Neuro2A cells; assay type: cell-based
# [8] = mouse brain homogenates, 0.2 nM [3H]CP-55,940, read-out: [3H]CP binding Ki
structure (smiles),measurement,setting,value
CCCCn1cc(C(=O)c2cccc3ccccc23)c2c(O)cccc21 [Compound M1],"[35S]GTPγS Binding, 1 μM",CB1Rs [1],0.17 ± 0.01 pmol/mg
same,"[35S]GTPγS Binding, +O-2050 (1 μM)",CB1Rs [1],0.07 ± 0.01 pmol/mg
same,[35S]GTPγS Binding Emax,"CB1Rs [1]; concentration-effect, mouse brain homogenates",0.14 ± 0.01^b pmole/mg
same,EC50,"CB1Rs [1]; concentration-effect, mouse brain homogenates, read-out: [35S]GTPγS Binding EC50",113 ± 29.2 nM
same,"[35S]GTPγS Binding, 10 μM",CB1Rs [1],0.14±0.01 pmole/mg and 0.14 ± 0.01^a pmole/mg
same,minimum core body temperature recorded,NIH Swiss mice [2]; 10 mg/kg,30.32±0.66 °C
same,time to maximal core body temperature reduction,NIH Swiss mice [2]; 10 mg/kg,58.00 ± 4.64 min
same,locomotor activity,NIH Swiss mice [3],reduction of locomotor activity similar to that observed with administration of JWH-073
same,Ki,CB1Rs [4]; [8],14.1 ± 3.5 nM
"CCCCn1cc(C(=O)Cc2ccc(F)cc2)c2cccc(OC)c21 [TV-5-129, 1-(1-butyl-7-methoxy-1H-indol-3-yl)-2-(4-fluorophenyl)ethanone]",Ki,hCB2Rs [5],281 nM
same,Ki,"CB1Rs [4]; Table 3, read-out: mCB1R Ki",387 ± 77 nM
same,inhibition at 10 µM,hCB2Rs [6],22.1%
same,inhibition at 10 µM,"[7]; N2a, 10 μM, Neuro2A cells",-4%
CCCCn1cc(C(=O)Cc2ccc(OC)cc2)c2cccc(OC)c21,melting point,,72 to 74 °C
CCCCn1cc(C(=O)Cc2ccccc2F)c2cccc(OC)c21,melting point,,86 to 88 °C
"O=C(O)CCCn1cc(C(=O)c2cccc3ccccc23)c2ccccc21 [Compound M6, 4-(3-(1-naphthoyl)-1H-indole-1-yl)-1-butanoic acid, reference compound]","displacement of [3H]CP-55,940 specific binding",CB1Rs [4]; concentrations as high as 10 μM,less than 10%
CCCCn1cc(-c2cccc3ccccc23)c2cccc(OC)c21,melting point,,74 to 76 °C
O=C(c1cccc2ccccc12)c1cn(CCCCO)c2ccccc12 [Compound M5],"[35S]GTPγS Binding, 1 μM",CB1Rs [1],0.12 ± 0.00 pmol/mg
same,"[35S]GTPγS Binding, +O-2050 (1 μM)",CB1Rs [1],0.05 ± 0.01 pmol/mg
same,"[35S]GTPγS Binding, 10 μM",CB1Rs [1],0.16±0.02 pmole/mg and 0.16 ± 0.02^a pmole/mg
same,Ki,CB1Rs [4]; [8],224 ± 9 nM
CCCCn1cc(C(=O)Cc2cccc3ccccc23)c2cccc(OC)c21,melting point,,110 to 113 °C
"CC1=CC[C@@H]2[C@@H](C1)c1c(O)cc(CC#CCCCNS(C)(=O)=O)cc1OC2(C)C [Compound O-2050, reference compound]",antagonism of AC-inhibition produced by the CB1R full agonist JWH-073,[7]; 1 μM concentration,antagonized AC-inhibition
CCCCn1cc(C(=O)Cc2ccccc2)c2cccc(OC)c21,melting point,,65 to 68 °C
CCCCn1cc(C(=O)c2cccc3ccccc23)c2ccc(O)cc21 [Compound M3],"[35S]GTPγS Binding, 1 μM",CB1Rs [1],0.04 ± 0.00 pmol/mg
same,"[35S]GTPγS Binding, +O-2050 (1 μM)",CB1Rs [1],0.02 ± 0.01 pmol/mg
same,"[35S]GTPγS Binding, 10 μM",CB1Rs [1],"0.11±0.02 pmole/mg and 0.11 ± 0.02^a,b pmole/mg"
same,Ki,"CB1Rs [4]; mouse brain homogenates, 0.2 nM [3H]CP-55,940, read-out: CB1R affinity (Ki)",1280 ± 470 nM
CCCCCn1cc(C(=O)c2cccc3ccccc23)c2ccccc21 [JWH-018],EC50,"CB1Rs [1]; JWH-018 alone, read-out: EC50 of JWH-018 for G-protein activation, alone",8 nM
same,EC50,"CB1Rs [1]; read-out: EC50 of JWH-018 in the presence of M4, + M4 1 μM",178 nM
same,EC50,"CB1Rs [1]; read-out: EC50 of JWH-018 in the presence of M4, + M4 3 μM",263 nM
same,EC50,"CB1Rs [1]; read-out: EC50 of JWH-018 in the presence of M4, + M4 10 μM",1560 nM
same,maximal decrease in core body temperature to,"NIH Swiss mice [2]; JWH-018 3 mg/kg, alone",30.28+/−0.71 °C
COc1cccc2c(C(=O)c3cccc4ccccc34)cn(CCN3CCOCC3)c12,melting point,,149 to 152 °C
